How the values were obtained:
VCaP cells = experiment: Cellular growth inhibition assay for VCaP cells, CellTiter-Glo; type: cell-based, human; settings: 72 hours treatment, CellTiter-Glo 2.0
Procedure, shortened: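 GI50 values come from four-parameter curve fits of luminescence data normalized to a zero baseline. Compound, in medium with 0.5% DMSO, was added one day after plating and left for 72 h before CellTiter-Glo 2.0 addition.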

[1] = system: T-Rex 293 cell line SC3 cells having increased expression of androgen receptor protein due to exposure to doxycycline; experiment: Cellular growth inhibition, T-Rex 293 SC3 cells with doxycycline (androgen receptor induced), CellTiter-Glo; type: cell-based; settings: T-Rex 293 SC3 cells with 10 ng/mL doxycycline (increased androgen receptor expression)
Procedure, shortened: (§1)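 Growth inhibition was compared in a T-Rex 293 clone with and without doxycycline (10 ng/mL)-driven androgen receptor overexpression. Compounds were applied for 72 h in hormone-depleted serum, and GI50 came from four-parameter curves of CellTiter-Glo signal.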

T47D cells = experiment: Cellular growth inhibition assay for T47D cells, CellTiter-Glo; type: cell-based, human; settings: 72 hours treatment, CellTiter-Glo 2.0 cell viability
Procedure, shortened: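 Cells are plated at 3000/well and allowed 24 h before treatment. Test compound in medium containing 0.5% DMSO is then added, with DMSO-only wells as negative control, and plates are incubated 72 h at 37 °C. ATP luminescence (CellTiter-Glo 2.0) is then fitted to four parameters to derive GI50.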

[2] = system: T-Rex 293 cell line SC3 cells lacking increased expression of androgen receptor protein; experiment: Cellular growth inhibition, T-Rex 293 SC3 cells without doxycycline, CellTiter-Glo; type: cell-based; settings: T-Rex 293 SC3 cells not exposed to doxycycline, CellTiter-Glo 2.0
Procedure, shortened: as §1

| Structure (SMILES) | GI50 (VCaP cells; Homo sapiens, VCaP, 72 h) [nM] | GI50 ([1]; 72 h) [nM] | GI50 (T47D cells; Homo sapiens, T47D, 72 h) [nM] | GI50 ([2]; 72 h) [nM] | GI50 (VCaP cells) [nM] | GI50 ([1]; 72 hours) [nM] | GI50 (T47D cells) [nM] | GI50 ([2]; 72 hours) [nM] |
| --- | --- | --- | --- | --- | --- | --- | --- | --- |
| Cc1sc2c(c1C)C(c1ccc(O[C@H]3C[C@@]4(CCCN(c5ncc(C(=O)N[C@H]6C(C)(C)[C@H](Oc7ccc(C#N)c(Cl)c7)C6(C)C)cn5)C4)C3)cc1)=N[C@@H](C)c1nnc(C)n1-2 [Compound I-392] | 500 to 1500 | < 500 | 500 to 1500 | > 3000 | – | – | – | – |
| Cc1sc2c(c1C)C(c1ccc([C@H]3C[C@@H]([C@H]4CCCN(c5ncc(C(=O)N[C@H]6C(C)(C)[C@H](Oc7ccc(C#N)c(Cl)c7)C6(C)C)cn5)C4)C3)cc1)=N[C@@H](Cc1ncco1)c1nnc(C)n1-2 [Compound I-421] | < 500 | < 500 | < 500 | > 3000 | – | – | – | – |
| Cc1sc2c(c1C)C(c1ccc(OC3CC4(CCN(c5ncc(C(=O)N[C@H]6C(C)(C)[C@H](Oc7ccc(C#N)c(Cl)c7)C6(C)C)cn5)CC4)C3)cc1)=N[C@@H](CC#N)c1nnc(C)n1-2 [Compound I-229, N-[3-(3-chloro-4-cyano-phenoxy)-2,2,4,4-tetramethyl-cyclobutyl]-2-[2-[4-[(9S)-9-(cyanomethyl)-4,5,13-trimethyl-3-thia-1,8,11,12-tetrazatricyclo[8.3.0.02,6]trideca-2(6),4,7,10,12-pentaen-7-yl]phenoxy]-7-azaspiro [3.5]nonan-7-yl]pyrimidine-5-carboxamide] | < 500 | < 500 | > 3000 | > 3000 | – | – | – | – |
| Cc1sc2c(c1C)C(c1ccc(CC[C@H]3C[C@]4(CCCN(c5ncc(C(=O)N[C@H]6C(C)(C)[C@H](Oc7ccc(C#N)c(Cl)c7)C6(C)C)cn5)C4)C3)cc1)=N[C@@H](Cc1ncco1)c1nnc(C)n1-2 [Compound I-239] | > 3000 | > 3000 | > 3000 | > 3000 | – | – | – | – |
| CC[C@@H]1N=C(c2ccc(CC3CCC4(C3)CN(c3ncc(C(=O)N[C@H]5C(C)(C)[C@H](Oc6ccc(C#N)c(Cl)c6)C5(C)C)cn3)CCO4)cc2)c2c(sc(C)c2C)-n2c(C)nnc21 (stereo partly shown) [Compound I-614] | – | – | – | – | < 500 | < 500 | < 500 | > 3000 |
| Cc1sc2c(c1C)C(c1ccc(CCCC3CCN(c4ncc(C(=O)N[C@H]5C(C)(C)[C@H](Oc6ccc(C#N)c(Cl)c6)C5(C)C)cn4)CC3)cc1)=NC(Cc1ncco1)c1nnc(C)n1-2 (stereo partly shown) [Compound I-133] | < 500 | < 500 | < 500 | 500 to 1500 | – | – | – | – |
| Cc1sc2c(c1C)C(c1ccc(N3CC(OC4CCN(c5ncc(C(=O)N[C@H]6C(C)(C)[C@H](Oc7ccc(C#N)c(Cl)c7)C6(C)C)cn5)CC4)C3)cc1)=N[C@@H](Cc1ncco1)c1nnc(C)n1-2 [Compound I-206, N-[3-(3-chloro-4-cyano-phenoxy)-2,2,4,4-tetramethyl-cyclobutyl]-2-[4-[1-[4-[(9S)-4,5,13-trimethyl-9-(oxazol-2-ylmethyl)-3-thia-1,8,11,12-tetrazatricyclo[8.3.0.02,6]trideca-2(6),4,7,10,12-pentaen-7-yl]phenyl]azetidin-3-yl]oxy-1-piperidyl]pyrimidine-5-carboxamide] | < 500 | < 500 | < 500 | < 500 | – | – | – | – |
| Cc1sc2c(c1C)C(c1ccc(N3C4CC(=O)CC3CN(c3ncc(C(=O)N[C@H]5C(C)(C)[C@H](Oc6ccc(C#N)c(Cl)c6)C5(C)C)cn3)C4)cc1)=NC(Cc1ncco1)c1nnc(C)n1-2 (stereo partly shown) [Compound I-654] | < 500 | – | < 500 | – | – | < 500 | – | < 500 |
| Cc1sc2c(c1C)C(c1ccc(C(C)(C)CN3CC4(CCCN(c5ncc(C(=O)NC6C(C)(C)C(Oc7ccc(C#N)c(Cl)c7)C6(C)C)cn5)C4)C3)cc1)=N[C@@H](Cc1ncco1)c1nnc(C)n1-2 (stereo partly shown) [Compound I-479] | < 500 | < 500 | 500 to 1500 | 500 to 1500 | – | – | – | – |
| Cc1sc2c(c1C)C(c1ccc(O[C@@H]3COC4(C3)CN(c3ncc(C(=O)N[C@H]5C(C)(C)[C@H](Oc6ccc(C#N)c(Cl)c6)C5(C)C)cn3)C4)cc1)=N[C@@H](Cc1ncco1)c1nnc(C)n1-2 [Compound I-182] | < 500 | < 500 | < 500 | < 500 | – | – | – | – |
| Cc1sc2c(c1C)C(c1ccc(C(=O)N3CCC(N(C)c4ncc(C(=O)N[C@H]5C(C)(C)[C@H](Oc6ccc(C#N)c(Cl)c6)C5(C)C)cn4)CC3)cc1)=N[C@H](Cc1ncco1)c1nnc(C)n1-2 [Compound I-294] | 1500 to 3000 | < 500 | 500 to 1500 | > 3000 | – | – | – | – |
| Cc1sc2c(c1C)C(c1ccc(O[C@H]3C[C@H](OC4CCN(c5ncc(C(=O)N[C@H]6C(C)(C)[C@H](Oc7ccc(C#N)c(Cl)c7)C6(C)C)cn5)CC4)C3)cc1)=N[C@@H](Cc1ncco1)c1nnc(C)n1-2 [Compound I-190] | < 500 | < 500 | < 500 | > 3000 | – | – | – | – |
| Cc1sc2c(c1C)C(c1ccc(N3CCOC4(CCN(c5ncc(C(=O)N[C@H]6C(C)(C)[C@H](Oc7ccc(C#N)c(Cl)c7)C6(C)C)cn5)CC4)C3)cc1)=NC(Cc1ncco1)c1nnc(C)n1-2 (stereo partly shown) [Compound I-647] | > 3000 | < 500 | < 500 | > 3000 | – | – | – | – |
| Cc1sc2c(c1C)C(c1ccc(-c3nnc(OC4CCN(c5ncc(C(=O)N[C@H]6C(C)(C)[C@H](Oc7ccc(C#N)c(Cl)c7)C6(C)C)cn5)CC4)s3)cc1)=N[C@@H](Cc1ncco1)c1nnc(C)n1-2 [Compound I-407] | < 500 | < 500 | < 500 | < 500 | – | – | – | – |
| Cc1sc2c(c1C)C(c1ccc(C(=O)N3CCCC(C(=O)c4ncc(C(=O)N[C@H]5C(C)(C)[C@H](Oc6ccc(C#N)c(Cl)c6)C5(C)C)cn4)C3)cc1)=N[C@H](Cc1ncco1)c1nnc(C)n1-2 (stereo partly shown) [Compound I-346] | 500 to 1500 | < 500 | > 3000 | > 3000 | – | – | – | – |
| Cc1sc2c(c1C)C(c1ccc(C3CC(C4CCN(c5ncc(C(=O)N[C@H]6C(C)(C)[C@H](Oc7ccc(C#N)c(Cl)c7)C6(C)C)cn5)CC4)C3)cc1)=NC(C)c1nnc(C)n1-2 (stereo partly shown) [Compound I-465] | – | < 500 | < 500 | > 3000 | < 500 | – | – | – |
| CCNC(=O)C[C@@H]1N=C(c2ccc(OC3CC(N(C)C4CCN(c5ncc(C(=O)N[C@H]6C(C)(C)[C@H](Oc7ccc(C#N)c(Cl)c7)C6(C)C)cn5)CC4)C3)cc2)c2c(sc(C)c2C)-n2c(C)nnc21 (stereo partly shown) [Compound I-82] | 500 to 1500 | < 500 | < 500 | 500 to 1500 | – | – | – | – |
| CC[C@@H]1N=C(c2ccc(N3CC(CC4CN(c5cnc(C(=O)N[C@H]6C(C)(C)[C@H](Oc7ccc(C#N)c(Cl)c7)C6(C)C)cn5)C4)C3)cc2)c2c(sc(C)c2C)-n2c(C)nnc21 [Compound I-607] | > 3000 | < 500 | < 500 | > 3000 | – | – | – | – |
| Cc1sc2c(c1C)C(c1ccc(C=C3CC4(CCCN(c5ncc(C(=O)N[C@H]6C(C)(C)[C@H](Oc7ccc(C#N)c(Cl)c7)C6(C)C)cn5)C4)C3)cc1)=N[C@@H](Cc1ncco1)c1nnc(C)n1-2 [Compound I-225, N-[3-(3-chloro-4-cyano-phenoxy)-2,2,4,4-tetramethyl-cyclobutyl]-2-[2-[[4-[(9S)-4,5,13-trimethyl-9-(oxazol-2-ylmethyl)-3-thia-1,8,11,12-tetrazatricyclo[8.3.0.02,6]trideca-2(6),4,7,10,12-pentaen-7-yl]phenyl]methylene]-6-azaspiro[3.5]nonan-6-yl]pyrimidine-5-carboxamide] | 1500 to 3000 | < 500 | 500 to 1500 | 500 to 1500 | – | – | – | – |

— patent US20260062422A1 (Halda Therapeutics OpCo, Inc., priority 2022, published 2026)
